The results in this text go back to patent US5747500A, “Antiviral 2, 4-pyrimidinedione derivatives” (priority 1993, dated 1998).

Data set [1] can be described thus: cytotoxicity: viability of mock-infected MT-4 host cells (MTT method). Type of data set: cell-based. As to conditions: human, mt-4 cells, read-out: CD50: Cytotoxic concentration that causes death of cells by 50%. As to the method:
The cytotoxicity of the compounds of the present invention was assessed in parallel with their antiviral activity. It was based on the viability of mock-infected host cells as determined by the MTT methods (se J. Virol. Methods, 20, 309 (1988)).
CD50 : Cytotoxic concentration that causes death of cells by 50%
For orientation: Tetrazolium dyes change colour on reduction, which living cells bring about.

The subject of another data set is HIV. As to the kind of experiment: inhibition of HIV-induced cytopathic effect in MT-4 cells (MTT method). As to conditions: for EC50: Human immunodeficiency virus 1, MT4, HIV-infected MT-4 cells, 1000 CCID50, 4 or 5 day incubation at 37° C., MTT method, read-out: ED50: Effective concentration for the inhibition of the proliferation of HIV by 50%; for S.I.: Selectivity index (CD50/ED50): ratio CD50/ED50, MT-4 cells. The class given is cell-based. The method, then: The anti-HIV assays were based on the inhibition of the virus-induced cytopathic effect in MT-4 cells as described in J. Virol. Methods, 16, 171 (1987). Briefly, MT-4 cells were suspended in culture medium at 2.5×10^5 cells/ml and infected with 1000 CCID50 (50% cell culture infective dose) of HIV. Immediately, after virus infection, 100 μl of the cell suspension was brought into each well of a flat-bottomedmicrotiter tray containing various concentrations of the test compounds. After a 4 or 5 day incubation at 37° C., the number of viable cells was determined by the 3-(4,5-dimethylthiazol-2-yl)-2,5-diphenyltetrazoliumbromide (MTT) method, as disclosed in J. Virol. Methods, 20, 309 (1988).
ED50 : Effective concentration for the inhibition of the
proliferation of HIV by 50%
For orientation: Cytopathic effects are the visible damage that an infection or toxin causes in cultured cells.

Values after ≈ are worked out from the molar mass of the structure shown.

On to `CCc1c(Cc2ccccc2)n(C/C=C/c2ccccc2)c(=O)[nH]c1=O` [Example 33], for which the CC50 in data set [1] stood at 8.58 µg/mL (≈ 24.8 µM). Further, in the data set on HIV, the EC50 is less than 0.032 µg/mL and the “S.I.: Selectivity index (CD50/ED50)” value is recorded as more than 268.
The corresponding values for `CC/C=C/Cn1c(Sc2cc(C)cc(C)c2)c(CC)c(=O)[nH]c1=O` [Example 2, 1-(trans-2-pentenyl)-5-ethyl-6-(3,5-dimethylphenylthio)-2,4-pyrimidinedione] are 8.73 µg/mL (≈ 25.3 µM), less than 0.32 µg/mL and more than 29.
The corresponding values for `CCc1c(Oc2cc(C)cc(C)c2)n(CC#Cc2ccccc2)c(=O)[nH]c1=O` [Example 61, 1-(3-phenyl-2-propynyl)-5-ethyl-6-(3,5-dimethylphenoxy)-2,4-pyrimidinedione] are 9.3 µg/mL (≈ 24.8 µM), less than 0.009 µg/mL and > 1,033.
The corresponding values for `CCc1c(Oc2cc(C)cc(C)c2)n(C/C=C/C(=O)OC)c(=O)[nH]c1=O` [Example 63] are 7.17 µg/mL (≈ 20 µM), less than 0.032 µg/mL and more than 224.
On to `CCc1c(C(=O)c2cc(C)cc(C)c2)n(C/C=C/COC)c(=O)[nH]c1=O` [Example 82, 1-(4-methoxy-trans-2-butenyl)-5-ethyl-6-(3,5-dimethylbenzoyl)-2,4-pyrimidinedione], for which the CC50 in data set [1] is 43.1 µg/mL (≈ 121 µM). In the data set with HIV, the EC50 was less than 0.32 µg/mL and the “S.I.: Selectivity index (CD50/ED50)” value is listed as more than 134.
For the compound `C#CCn1c(Cc2cc(C)cc(C)c2)c(CC)c(=O)[nH]c1=O` [Example 38, 1-propargyl-5-ethyl-6-(3,5-dimethylbenzyl)-2,4-pyrimidinedione], in data set [1], the CC50 came out at 24.1 µg/mL (≈ 81.5 µM). For the same compound, in the data set with HIV, the EC50 was less than 0.32 µg/mL and the “S.I.: Selectivity index (CD50/ED50)” value is reported as more than 75.
The corresponding values for `Cc1cc(C)cc(C(=O)c2c(C(C)C)c(=O)[nH]c(=O)n2CC#Cc2ccccc2)c1` [Example 56, 1-(3-phenyl-2-propynyl)-5-isopropyl-6-(3,5-dimethylbenzoyl)-2,4-pyrimidinedione] are 6.76 µg/mL (≈ 16.9 µM), less than 0.009 µg/mL and more than 75.1.
The corresponding values for `CCc1c(C(=O)c2cc(C)cc(C)c2)n(CC=CC(=O)OC(C)C)c(=O)[nH]c1=O` [Example 73, 1-(isopropoxycarbonylallyl)-5-ethyl-6-(3,5-dimethylbenzoyl)-2,4-pyrimidinedione] are 4.85 µg/mL (≈ 12.2 µM), less than 0.01 µg/mL and more than 485.
Regarding `C/C=C\Cn1c(C(=O)c2cc(C)cc(C)c2)c(CC)c(=O)[nH]c1=O` [Example 68, 1-(cis-2-butenyl)-5-ethyl-6-(3,5-dimethylbenzoyl)-2,4-pyrimidinedione], the CC50 in data set [1] was 8.21 µg/mL (≈ 25.2 µM). In the data set on HIV, the EC50 is less than 0.032 µg/mL and the “S.I.: Selectivity index (CD50/ED50)” value is more than 162.
The corresponding values for `Cc1cc(C)cc(C(=O)c2c(C(C)C)c(=O)[nH]c(=O)n2C/C=C/CO)c1` [Example 76, 1-(4-hydroxy-trans-2-butenyl)-5-isopropyl-6-(3,5-dimethylbenzoyl)-2,4-pyrimidinedione] are 42 µg/mL (≈ 118 µM), less than 0.025 µg/mL and > 1,679.
The corresponding values for `CCc1c(Sc2cc(C)cc(C)c2)n(CC=CC(=O)O)c(=O)[nH]c1=O` [Example 77, 1-(carboxyallyl)-5-ethyl-6-(3,5-dimethylphenylthio)-2,4-pyrimidinedione] are 68.3 µg/mL (≈ 190 µM), less than 0.902 µg/mL and more than 75.
On the same counts, the results for `C/C=C/Cn1c(Cc2cc(C)cc(C)c2)c(C(C)C)c(=O)[nH]c1=O` [Example 41] are 21 µg/mL (≈ 64.5 µM), 0.01 µg/mL (≈ 0.0306 µM) and > 2,104.
In the case of `CCc1c(Oc2cc(C)cc(C)c2)n(C/C=C/c2ccccc2)c(=O)[nH]c1=O` [Example 59, 1-(trans-cinnamyl)-5-ethyl-6-(3,5-dimethylphenoxy)-2,4-pyrimidinedione], in data set [1], the CC50 came out at 38.6 µg/mL (≈ 102 µM). In the data set on HIV, the EC50 is less than 0.23 µg/mL and the “S.I.: Selectivity index (CD50/ED50)” value is recorded as more than 167.
The corresponding values for `CCOC(=O)C=CCn1c(C(=O)c2cc(C)cc(C)c2)c(CC)c(=O)[nH]c1=O` [Example 72, 1-(ethoxycarbonylallyl)-5-ethyl-6-(3,5-dimethylbenzoyl)-2,4-pyrimidinedion] are 6.85 µg/mL (≈ 17.8 µM), less than 0.01 µg/mL and more than 685.
The corresponding values for `C/C=C\Cn1c(Oc2cc(C)cc(C)c2)c(C(C)C)c(=O)[nH]c1=O` [Example 71, 1-(cis-2-butenyl)-5-isopropyl-6-(3,5-dimethylphenoxy)-2,4-pyrimidinedione] are 7.71 µg/mL (≈ 23.5 µM), less than 0.0155 µg/mL and more than 497.
With `Cc1cc(C)cc(Cc2c(C(C)C)c(=O)[nH]c(=O)n2CC#Cc2ccccc2)c1` [Example 42, 1-(3-phenyl-2-propynyl)-5-isopropyl-6-(3,5-dimethylbenzyl)-2,4-pyrimidinedione], the CC50 in data set [1] came out at 7.42 µg/mL (≈ 19.2 µM). Besides, in the data set with HIV, the EC50 is less than 0.009 µg/mL and the “S.I.: Selectivity index (CD50/ED50)” value is listed as more than 824.
On the same counts, the results for `CC#CCn1c(Oc2cc(C)cc(C)c2)c(C(C)C)c(=O)[nH]c1=O` [Example 11, 1-(2-butynyl)-5-isopropyl-6-(3,5-dimethylphenoxy)-2,4-pyrimidinedione] are 39.9 µg/mL (≈ 122 µM), less than 0.32 µg/mL and more than 124.
Take `CC/C=C/Cn1c(Sc2cc(C)cc(C)c2)c(C(C)C)c(=O)[nH]c1=O` [Example 28]: the CC50 in data set [1] stood at 5.79 µg/mL (≈ 16.2 µM). Also, in the data set with HIV, the EC50 is less than 0.009 µg/mL and the “S.I.: Selectivity index (CD50/ED50)” value was more than 643.
`CCc1c(Sc2ccccc2)n(C/C=C/c2ccccc2)c(=O)[nH]c1=O` [Example 14]: the CC50 in data set [1] was 5.77 µg/mL (≈ 15.8 µM). In the data set with HIV, the EC50 was less than 0.032 µg/mL and the “S.I.: Selectivity index (CD50/ED50)” value was more than 180.
On the same counts, the results for `C/C=C/Cn1c(Cc2ccccc2)c(CC)c(=O)[nH]c1=O` [Example 32] are 32.4 µg/mL (≈ 114 µM), less than 0.32 µg/mL and more than 101.
The corresponding values for `C/C=C\Cn1c(Oc2cc(C)cc(C)c2)c(CC)c(=O)[nH]c1=O` [Example 70, 1-(cis-2-butenyl)-5-ethyl-6-(3,5-dimethylphenoxy)-2,4-pyrimidinedione] are 73.8 µg/mL (≈ 235 µM), less than 0.01 µg/mL and > 7,381.
Turning to `CCc1c(C(=O)c2cc(C)cc(C)c2)n(C/C=C/CCl)c(=O)[nH]c1=O` [Example 47], the CC50 in data set [1] came out at 6.7 µg/mL (≈ 18.6 µM). Besides, in the data set with HIV, the EC50 was less than 0.009 µg/mL and the “S.I.: Selectivity index (CD50/ED50)” value was more than 774.
The corresponding values for `C/C=C/Cn1c(Sc2cc(C)cc(C)c2)c(C(C)C)c(=O)[nH]c1=O` [Example 27] are 6.66 µg/mL (≈ 19.3 µM), less than 0.009 µg/mL and more than 740.
The corresponding values for `CCc1c(C(=O)c2cc(C)cc(C)c2)n(CC=CC(=O)OC)c(=O)[nH]c1=O` [Example 8, 1-(methoxycarbonylallyl)-5-ethyl-6-(3,5-dimethylbenzoyl)-2,4-pyrimidinedione] are 27.2 µg/mL (≈ 73.5 µM), less than 0.19 µg/mL and more than 143.
Turning to `C/C=C/Cn1c(Sc2cc(C)cc(C)c2)c(CC)c(=O)[nH]c1=O` [Example 19], the CC50 in data set [1] came out at 8.74 µg/mL (≈ 26.4 µM). The “S.I.: Selectivity index (CD50/ED50)” value with HIV was more than 971.
As for `CCc1c(Sc2cc(C)cc(C)c2)n(C/C=C/c2ccccc2)c(=O)[nH]c1=O` [Example 20], in data set [1], the CC50 turned out to be 5.21 µg/mL (≈ 13.3 µM). Besides, in the data set with HIV, the EC50 is less than 0.009 µg/mL and the “S.I.: Selectivity index (CD50/ED50)” value is given as more than 578.
For the compound `C=CCn1c(Cc2ccccc2)c(CC)c(=O)[nH]c1=O` [Example 4, 1-allyl-5-ethyl-6-benzyl-2,4-pyrimidinedione], the CC50 in data set [1] amounted to 52.5 µg/mL (≈ 194 µM). In the data set on HIV, the EC50 is less than 0.32 µg/mL and the “S.I.: Selectivity index (CD50/ED50)” value is on record as more than 164.
Consider `CCc1c(C(=O)c2cc(C)cc(C)c2)n(C/C=C/CN=[N+]=[N-])c(=O)[nH]c1=O` [Example 79, 1-(4-azido-trans-2-butenyl)-5-ethyl-6-(3,5-dimethylbenzoyl)-2,4-pyrimidinedione], for which the CC50 in data set [1] came to 8.2 µg/mL (≈ 22.3 µM). Moreover, in the data set with HIV, the EC50 is less than 0.009 µg/mL and the “S.I.: Selectivity index (CD50/ED50)” value is given as more than 911.
On the same counts, the results for `COC(=O)/C=C/Cn1c(Oc2cc(C)cc(C)c2)c(C(C)C)c(=O)[nH]c1=O` [Example 66] are 78.6 µg/mL (≈ 211 µM), less than 0.32 µg/mL and more than 245.
The corresponding values for `CCc1c(Cc2cc(C)cc(C)c2)n(CC=C(C)C)c(=O)[nH]c1=O` [Example 36, 1-(3-methyl-2-butenyl)-5-ethyl-6-(3,5-dimethylbenzyl)-2,4-pyrimidinedione] are 22.1 µg/mL (≈ 67.6 µM), less than 0.33 µg/mL and 66.
The corresponding values for `CCc1c(Sc2cc(C)cc(C)c2)n(C/C=C/C(=O)OC)c(=O)[nH]c1=O` [Example 21] are 41.4 µg/mL (≈ 111 µM), less than 0.32 µg/mL and more than 129.
With `CC/C=C/Cn1c(C(=O)c2cc(C)cc(C)c2)c(C(C)C)c(=O)[nH]c1=O` [Example 53], the CC50 in data set [1] was 5.99 µg/mL (≈ 16.9 µM). Besides, in the data set on HIV, the EC50 is less than 0.009 µg/mL and the “S.I.: Selectivity index (CD50/ED50)” value is more than 665.
